Patent publication US20250255847A1, “[…]s: Novel Drugs for Triple Negative Breast Cancer” (SIMMARON RSEARCH INC, priority 2024, published 2025)

How the values were obtained:
purified STAT1 protein = target: T1, purified STAT1 protein (Homo sapiens, UniProt P42224); assay: Protein thermal shift (PTS) assay of STAT1; assay type: binding; conditions: for ΔTm at 0.02 µM: 20 nM
T1 sequence (P42224 1-750): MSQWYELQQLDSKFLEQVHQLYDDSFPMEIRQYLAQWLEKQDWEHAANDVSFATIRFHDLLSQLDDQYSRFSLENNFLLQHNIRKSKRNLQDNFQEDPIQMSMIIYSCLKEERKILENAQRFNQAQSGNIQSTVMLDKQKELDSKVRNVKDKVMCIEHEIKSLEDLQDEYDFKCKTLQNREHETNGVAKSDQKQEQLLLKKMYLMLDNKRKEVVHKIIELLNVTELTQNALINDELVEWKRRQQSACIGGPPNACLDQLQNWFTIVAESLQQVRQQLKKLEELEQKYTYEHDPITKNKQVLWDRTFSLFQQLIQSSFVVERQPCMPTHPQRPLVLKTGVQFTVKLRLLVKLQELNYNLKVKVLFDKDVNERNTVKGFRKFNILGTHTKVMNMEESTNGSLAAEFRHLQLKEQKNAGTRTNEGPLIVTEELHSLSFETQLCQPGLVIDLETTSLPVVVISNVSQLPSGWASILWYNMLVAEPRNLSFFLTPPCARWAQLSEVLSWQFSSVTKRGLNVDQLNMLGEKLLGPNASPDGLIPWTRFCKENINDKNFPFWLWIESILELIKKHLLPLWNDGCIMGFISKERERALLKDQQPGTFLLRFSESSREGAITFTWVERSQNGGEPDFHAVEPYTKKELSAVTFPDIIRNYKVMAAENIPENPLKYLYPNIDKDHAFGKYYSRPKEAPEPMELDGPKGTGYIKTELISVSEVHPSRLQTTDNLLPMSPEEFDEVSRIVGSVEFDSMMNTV
Description: (§1) FIG. 5 illustrates an embodiment of the present invention and illustrates evaluations of SIM-1 and SIM-2 as STAT3 inhibitors. (A) Protein thermal shift assay was performed to assess the melting of purified recombinant STAT3 (blue; 0.5 μg protein) (Tm=melting temperature=68.88° C.). The representative melting curves were derived after adding SIM-1 (red; 4 nM), SIM-2 (purple; 8 nM), and positive control stattic (grey; 20 nM) to the STAT3 protein. The differences of melting temperature (ΔTm) between pure protein and protein+ligands are −4.54° C., −4.16° C., and 0.39° C. for SIM-1, SIM-2, and stattic (ΔTm^cut-off>2° C.). (B) Phospho protein array analysis was conducted in cell lysates of MDA-MB-468 cells treated with DMSO control (top left), 25 ng/mL EGF (top right), EGF+10 nM SIM-1 (bottom left), and EGF+SIM-2 (bottom right) for 24 hrs. Each colored arrowhead represents a specific phosphoprotein, and the description was added in the bottom of array images. S=serine and Y=tyrosine. Relative levels of (C) Tyrosine 705 (Y705) phosphorylated STAT3, (D) Serine 727 (S727) phosphorylated STAT3, (E) Tyrosine 693 (Y693) phosphorylated STAT4, (F) Tyrosine 694 ([…]) phosphorylated STAT5A had been derived after normalizing the spot densities (n=5) with respective β-actin spots. Results are mean±SD of five different spot analyses. One-way ANOVA was adopted to test the significance of mean between groups at **p<0.01, and ****p<0.0001. Ns=no significance. Thermal shift assays of increasing doses of (G) SIM-1, (H) SIM-2, and (I) stattic with purified STAT1 protein (0.5 μg protein). The respective ΔTm values were given with the plot after matching with the color code. Similarly, full-length STAT5b protein melting was assessed with (J) SIM-1, (K) SIM-2, and (L) stattic. Results are confirmed after three different experiments.
(§2) To confirm the result, PTS assay of STAT1 with SIM-1 (FIG. 5G), SIM-2 (FIG. 5H), and stattic (FIG. 5I) was performed. […] Similar results were observed while performing the binding assay with STAT5b.

[1] = target: T2, full-length STAT5b protein (Homo sapiens, UniProt P51692); assay: Protein thermal shift binding assay with STAT5b; conditions: increasing doses
T2 construct: full-length STAT5b protein melting was assessed with (J) SIM-1, (K) SIM-2, and (L) stattic
T2 sequence (P51692 1-787): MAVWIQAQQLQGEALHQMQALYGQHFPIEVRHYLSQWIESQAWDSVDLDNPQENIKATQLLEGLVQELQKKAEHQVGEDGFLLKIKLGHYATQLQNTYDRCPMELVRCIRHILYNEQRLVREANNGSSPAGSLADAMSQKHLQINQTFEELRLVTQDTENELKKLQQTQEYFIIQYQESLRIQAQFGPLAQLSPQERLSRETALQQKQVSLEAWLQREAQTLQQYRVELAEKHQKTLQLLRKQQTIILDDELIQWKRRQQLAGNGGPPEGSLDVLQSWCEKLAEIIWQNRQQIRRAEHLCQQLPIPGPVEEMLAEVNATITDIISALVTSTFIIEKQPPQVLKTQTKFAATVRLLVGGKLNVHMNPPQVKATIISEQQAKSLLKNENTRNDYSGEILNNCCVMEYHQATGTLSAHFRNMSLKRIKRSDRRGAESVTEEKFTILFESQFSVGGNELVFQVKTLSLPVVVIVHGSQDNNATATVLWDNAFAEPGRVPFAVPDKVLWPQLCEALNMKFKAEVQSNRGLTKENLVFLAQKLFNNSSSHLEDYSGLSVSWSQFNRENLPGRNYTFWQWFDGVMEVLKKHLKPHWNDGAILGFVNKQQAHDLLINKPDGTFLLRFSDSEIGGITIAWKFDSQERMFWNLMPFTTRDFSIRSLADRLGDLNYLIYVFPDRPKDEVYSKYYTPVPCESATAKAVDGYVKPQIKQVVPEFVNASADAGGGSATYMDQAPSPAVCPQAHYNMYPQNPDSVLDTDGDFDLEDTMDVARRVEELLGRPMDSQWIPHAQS
Description: as §1, §2

| Structure (SMILES) | ΔTm at 0.02 µM (purified STAT1 protein) [°C] | ΔTm of STAT1 (purified STAT1 protein; concentration printed only as 'nM' (figure missing)) [°C] | shift in the melting curve of STAT5b [1] | ΔTm at 0.01 µM (purified STAT1 protein; 10 nM) [°C] |
| --- | --- | --- | --- | --- |
| O=C(O)CCC(=O)NCc1csc2ccc(Cl)cc12 [SIM-1, 4-[(5-chloro-1-benzothiophen-3-yl)methylamino]-4-oxobutanoic acid] | 0.29 | 0.41 | unable to produce any significant shift |  |
| CCOC(=O)c1c(NC(C)=O)sc2c(Cl)c(/C=N/O)ccc12 [SIM-2, ethyl 2-acetamido-7-chloro-6-(hydroxyiminomethyl)-1-benzothiophene-3-carboxylate] | 0.89 |  | unable to produce any significant shift | 0.46 |
